Source: ChEMBL document CHEMBL5620385, “Orally bioavailable styryl derivative of rohitukine-N-oxide inhibits CDK9/T1 and the growth of pancreatic cancer cells” (Eur J Med Chem, 2023)

Tests used:
[1] = Antiproliferative activity against HEK293 cells assessed as cell growth inhibition at 10 uM incubated for 48 hrs by MTT assay relative to control; type: toxicity, cell-based; details: human
[2] = test system: MIA PaCa-2; assay: Antiproliferative activity against human MIA PaCa-2 cells assessed as cell growth inhibition at 10 uM incubated for 48 hrs by MTT assay relative to control; type: functional
[3] = target: Cyclin-dependent kinase 7/ cyclin H (Homo sapiens) (UniProt P51946+P50613); assay: Inhibition of CDK7/cyclin H (unknown origin) at 10 uM by ADP-Glo assay relative to control; type: protein-complex assay
[4] = target: CDK9/Cyclin K (Homo sapiens) (UniProt P50750+O75909); assay: Inhibition of CDK9/cyclin K (unknown origin) at 10 uM by ADP-Glo assay relative to control; type: protein-complex assay
[5] = test system: HCT-116; assay: Antiproliferative activity against human HCT-116 cells assessed as cell growth inhibition at 10 uM incubated for 48 hrs by MTT assay relative to control; type: functional
[6] = target: CDK9/Cyclin K (Homo sapiens, UniProt P50750); assay: Inhibition of CDK9/cyclin K (unknown origin) by ADP-Glo assay; type: protein-complex assay
Chain of CDK9/Cyclin K (P50750 whole entry): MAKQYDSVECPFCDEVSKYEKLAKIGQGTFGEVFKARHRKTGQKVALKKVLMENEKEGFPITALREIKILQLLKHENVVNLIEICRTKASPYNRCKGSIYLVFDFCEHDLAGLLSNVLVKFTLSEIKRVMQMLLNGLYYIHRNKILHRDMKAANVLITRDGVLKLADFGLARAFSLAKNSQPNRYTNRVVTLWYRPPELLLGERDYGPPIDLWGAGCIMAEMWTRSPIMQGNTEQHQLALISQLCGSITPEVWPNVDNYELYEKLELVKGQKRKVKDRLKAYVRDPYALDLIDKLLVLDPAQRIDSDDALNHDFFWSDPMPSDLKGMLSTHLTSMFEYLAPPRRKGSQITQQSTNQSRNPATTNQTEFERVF
Chain of CDK9/Cyclin K (O75909 whole entry, further chain): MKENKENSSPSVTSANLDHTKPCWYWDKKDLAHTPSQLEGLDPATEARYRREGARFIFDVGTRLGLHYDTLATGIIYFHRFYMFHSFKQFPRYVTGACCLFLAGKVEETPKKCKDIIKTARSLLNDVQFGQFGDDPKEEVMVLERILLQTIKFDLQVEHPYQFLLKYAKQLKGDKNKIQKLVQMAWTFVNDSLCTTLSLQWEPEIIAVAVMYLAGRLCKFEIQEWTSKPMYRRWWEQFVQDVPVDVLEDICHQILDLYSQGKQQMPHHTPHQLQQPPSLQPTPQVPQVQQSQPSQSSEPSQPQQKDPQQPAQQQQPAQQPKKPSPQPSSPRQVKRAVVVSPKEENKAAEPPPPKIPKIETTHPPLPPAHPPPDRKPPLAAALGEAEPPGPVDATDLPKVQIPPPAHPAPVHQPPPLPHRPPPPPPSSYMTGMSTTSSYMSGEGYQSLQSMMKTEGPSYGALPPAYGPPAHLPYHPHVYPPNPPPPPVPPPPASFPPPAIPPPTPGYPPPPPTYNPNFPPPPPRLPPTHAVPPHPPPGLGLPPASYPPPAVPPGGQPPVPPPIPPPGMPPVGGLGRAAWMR

[7] = target: Cyclin-dependent kinase 7/ cyclin H (Homo sapiens, UniProt P50613); assay: Inhibition of CDK7/cyclin H (unknown origin) by ADP-Glo assay; type: protein-complex assay
Chain of Cyclin-dependent kinase 7/ cyclin H (P51946 whole entry): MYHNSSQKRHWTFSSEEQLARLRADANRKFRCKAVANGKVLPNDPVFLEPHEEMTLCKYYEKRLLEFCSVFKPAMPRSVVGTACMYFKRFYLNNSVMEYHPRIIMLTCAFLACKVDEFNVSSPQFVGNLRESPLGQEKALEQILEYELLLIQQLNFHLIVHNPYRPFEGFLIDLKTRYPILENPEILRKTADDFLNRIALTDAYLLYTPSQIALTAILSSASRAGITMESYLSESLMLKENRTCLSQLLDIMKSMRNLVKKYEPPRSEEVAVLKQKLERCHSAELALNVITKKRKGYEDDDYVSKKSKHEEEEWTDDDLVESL
Chain of Cyclin-dependent kinase 7/ cyclin H (P50613 whole entry): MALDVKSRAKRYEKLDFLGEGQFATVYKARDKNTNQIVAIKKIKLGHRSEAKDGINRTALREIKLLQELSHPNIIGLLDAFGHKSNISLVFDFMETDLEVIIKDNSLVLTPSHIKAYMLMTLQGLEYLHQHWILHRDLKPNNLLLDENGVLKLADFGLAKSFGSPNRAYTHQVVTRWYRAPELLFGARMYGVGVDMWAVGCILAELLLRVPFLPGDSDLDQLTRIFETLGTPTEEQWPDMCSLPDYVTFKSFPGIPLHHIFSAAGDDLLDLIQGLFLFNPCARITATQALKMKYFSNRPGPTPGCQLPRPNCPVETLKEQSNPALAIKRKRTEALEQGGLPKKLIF

[8] = test system: MIA PaCa-2; assay: Antiproliferative activity against human MIA PaCa-2 cells assessed as cell growth inhibition incubated for 48 hrs by MTT assay; type: functional
[9] = target: CDK9/cyclin T1 (Homo sapiens, UniProt P50750); assay: Inhibition of CDK9/cyclin T1 (unknown origin) by ADP-Glo assay; type: protein-complex assay
Chain of CDK9/cyclin T1 (O60563 whole entry): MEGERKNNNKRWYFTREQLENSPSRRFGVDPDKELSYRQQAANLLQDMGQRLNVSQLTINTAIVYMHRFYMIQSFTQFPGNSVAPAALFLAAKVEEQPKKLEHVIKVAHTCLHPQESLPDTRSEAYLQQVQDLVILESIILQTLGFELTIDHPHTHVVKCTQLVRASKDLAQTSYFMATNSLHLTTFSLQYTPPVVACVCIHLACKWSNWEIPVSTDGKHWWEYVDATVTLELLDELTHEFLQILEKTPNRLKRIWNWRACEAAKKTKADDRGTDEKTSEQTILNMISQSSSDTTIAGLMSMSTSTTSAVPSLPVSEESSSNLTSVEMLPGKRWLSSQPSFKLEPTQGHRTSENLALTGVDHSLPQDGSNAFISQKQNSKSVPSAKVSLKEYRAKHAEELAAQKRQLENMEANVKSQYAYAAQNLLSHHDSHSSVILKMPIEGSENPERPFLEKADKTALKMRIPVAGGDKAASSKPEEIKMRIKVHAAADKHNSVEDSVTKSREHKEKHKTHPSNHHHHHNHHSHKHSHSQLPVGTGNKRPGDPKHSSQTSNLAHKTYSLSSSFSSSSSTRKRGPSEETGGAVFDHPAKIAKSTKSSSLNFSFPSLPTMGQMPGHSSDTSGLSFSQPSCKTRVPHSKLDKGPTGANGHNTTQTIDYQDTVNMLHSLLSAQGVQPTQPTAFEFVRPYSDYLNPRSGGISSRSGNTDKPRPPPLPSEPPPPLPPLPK
Chain of CDK9/cyclin T1 (P50750 whole entry): as the sequence (P50750 whole entry) above

[10] = test system: HCT-116; assay: Antiproliferative activity against human HCT-116 cells assessed as cell growth inhibition incubated for 48 hrs by MTT assay; type: functional
[11] = Antiproliferative activity against HEK293 cells assessed as cell growth inhibition incubated for 48 hrs by MTT assay; type: toxicity, cell-based; details: human
[12] = test system: MIA PaCa-2; assay: Induction of apoptosis in human MIA PaCa-2 cells assessed as apoptotic body formation incubated for 48 hrs by DAPI staining based analysis; type: functional, cell-based
[13] = test system: MIA PaCa-2; assay: Induction of mitochondrial membrane potential loss in human MIA PaCa-2 cells incubated for 48 hrs by Rhodamine-123 dye based analysis; type: functional, cell-based
[14] = test system: MIA PaCa-2; assay: Induction of apoptosis in human MIA PaCa-2 cells assessed as chromatin condensation incubated for 48 hrs by DAPI staining based analysis; type: functional, cell-based

| inhibition [3] [%] | inhibition [4] [%] | IC50 [6] [µM] | IC50 [7] [µM] | GI50 [8] [µM] | IC50 [9] [µM] | GI50 [10] [µM] | Structure (SMILES) | inhibition at 48 h, 10 µM [1] [%] | inhibition at 10 µM [2] [%] | inhibition at 10 µM [5] [%] | GI50 at 48 h [11] [µM] | Activity [12] | Activity [13] | Activity [14] |
| --- | --- | --- | --- | --- | --- | --- | --- | --- | --- | --- | --- | --- | --- | --- |
| 50.3 | 17 |  |  |  |  |  | COc1cc(O)c2c(=O)cc(/C=C/c3c(F)ccc(Cl)c3F)oc2c1[C@H]1CC[N+](C)([O-])C[C@H]1OC (stereo partly drawn) | 15.5 | 39 | 38.1 |  |  |  |  |
| 12.8 | 37.9 | > 10 | > 10 | > 10 | 7.65 | > 10 | Cc1cc(=O)c2c(O)cc(O)c([C@H]3CC[N+](C)([O-])C[C@H]3O)c2o1 (stereo partly drawn) | 14.3 | 18.8 | 34 | > 100 |  |  |  |
| 48.5 |  |  | 5.14 | 7.05 | 1.43 | 4.56 | C[N+]1([O-])CC[C@H](c2c(O)cc(O)c3c(=O)cc(/C=C/c4c(F)cccc4Cl)oc23)[C@H](O)C1 (stereo partly drawn) | 19.3 | 56.1 | 61.7 | > 100 |  |  |  |
| 41.7 | 44.2 | > 10 | > 10 | > 10 | 1.99 | > 10 | C[N+]1([O-])CC[C@H](c2c(O)cc(O)c3c(=O)cc(/C=C/c4ccccc4)oc23)[C@H](O)C1 (stereo partly drawn) | 8.2 | 21.5 | 20.5 | > 100 |  |  |  |
| 18.2 | 35.8 | > 10 | > 10 | > 10 | 3.85 | > 10 | C[N+]1([O-])CC[C@H](c2c(O)cc(O)c3c(=O)cc(/C=C/c4ccc(Cl)cc4)oc23)[C@H](O)C1 (stereo partly drawn) | 9.1 | 44.2 | 39.3 | 46.3 |  |  |  |
| 19.4 | 37.3 | > 10 | > 10 | > 10 | 3.71 | > 10 | C[N+]1([O-])CC[C@H](c2c(O)cc(O)c3c(=O)cc(/C=C/c4cccc(Cl)c4)oc23)[C@H](O)C1 (stereo partly drawn) | 9.2 | 36.3 | 27.4 | > 100 |  |  |  |
| 49.6 | 43.2 |  |  |  |  |  | C[N+]1([O-])CC[C@H](c2c(O)cc(O)c3c(=O)cc(/C=C/c4ccc(Cl)cc4Cl)oc23)[C@H](O)C1 (stereo partly drawn) | 18.2 | 41.2 | 54 |  |  |  |  |
| 15.9 | 58.9 | 8.47 | > 10 | 5.58 | 0.676 | > 10 | C[N+]1([O-])CC[C@H](c2c(O)cc(O)c3c(=O)cc(/C=C/c4ccccc4F)oc23)[C@H](O)C1 (stereo partly drawn) | 18.8 | 31.8 | 18.2 | > 100 |  |  |  |
| 89.6 | 64.8 |  |  |  |  |  | C[N+]1([O-])CC[C@H](c2c(O)cc(O)c3c(=O)cc(/C=C/c4ccccc4I)oc23)[C@H](O)C1 (stereo partly drawn) | 13.4 | 38.1 | 38.3 |  |  |  |  |
| 65.4 | 66.2 |  |  |  |  |  | C[N+]1([O-])CC[C@H](c2c(O)cc(O)c3c(=O)cc(/C=C/c4ccc(Cl)cc4Br)oc23)[C@H](O)C1 (stereo partly drawn) | 21.4 | 58.4 | 57.1 |  |  |  |  |
| 49.4 | 60.2 | 2.41 | 1.62 | 5.35 | 0.231 | 9.32 | C[N+]1([O-])CC[C@H](c2c(O)cc(O)c3c(=O)cc(/C=C/c4ccccc4Br)oc23)[C@H](O)C1 (stereo partly drawn) | 17.2 | 70.3 | 36.3 | 95.2 |  |  |  |
|  |  |  |  |  |  |  | CC(=O)O[C@H]1C(=O)[C@@]2(C)[C@H]([C@H](OC(=O)c3ccccc3)[C@]3(O)C[C@H](OC(=O)[C@H](O)[C@@H](NC(=O)c4ccccc4)c4ccccc4)C(C)=C1C3(C)C)[C@]1(OC(C)=O)CO[C@@H]1C[C@@H]2O |  |  |  |  | Dose-Dependent Effect | Dose-Dependent Effect | Dose-Dependent Effect |
| 47.5 | 59.6 |  |  |  |  |  | COc1cc(O)c2c(=O)cc(/C=C/c3cccc(Cl)c3F)oc2c1[C@H]1CC[N+](C)([O-])C[C@H]1O (stereo partly drawn) | 17.2 | 52.7 | 62.1 |  |  |  |  |
| 25.6 | 28 |  |  |  |  |  | C[N+]1([O-])CC[C@H](c2c(O)cc(O)c3c(=O)cc(/C=C/c4cc(Cl)cc(Cl)c4)oc23)[C@H](O)C1 (stereo partly drawn) | 14.8 | 11.3 | 5.7 |  |  |  |  |
| 81.6 | 83.6 | 0.32 |  | 1.94 | 0.003 | 9.32 | CN1CC[C@H](c2c(O)cc(O)c3c(=O)cc(/C=C/c4c(Cl)cccc4Cl)oc23)[C@H](O)C1 | 20.6 | 82.5 | 49.5 | > 100 |  |  |  |
| 51.4 | 41.8 |  |  |  |  |  | COc1cc(O)c2c(=O)cc(/C=C/c3c(F)ccc(F)c3Cl)oc2c1[C@H]1CC[N+](C)([O-])C[C@H]1O (stereo partly drawn) | 20 | 36.4 | 57.7 |  |  |  |  |
| 56.7 | 28.4 |  |  |  |  |  | COc1cc(O)c2c(=O)cc(/C=C/c3ccc(F)c(Cl)c3)oc2c1[C@H]1CC[N+](C)([O-])C[C@H]1O (stereo partly drawn) | 6.9 | 27.8 | 33.7 |  |  |  |  |
| 37.4 |  |  | > 10 | 8.03 | 0.45 | > 10 | CCOc1cc(O)c2c(=O)cc(/C=C/c3c(F)cccc3Cl)oc2c1[C@H]1CC[N+](C)([O-])C[C@H]1O (stereo partly drawn) | 22.8 | 52.8 | 34.7 | > 100 |  |  |  |
| 47.5 | 65.8 | 3.44 | 6.44 | 9.7 | 0.399 | 5.44 | C[N+]1([O-])CC[C@H](c2c(O)cc(O)c3c(=O)cc(/C=C/c4c(Cl)cccc4Cl)oc23)[C@H](O)C1 (stereo partly drawn) | 24.1 | 53.6 | 72.3 | > 100 |  |  |  |
